Experiments:
[1] = molecular target: T1, mammalian heparanase (HEPase) (Homo sapiens, UniProt Q9Y251); conditions: cited from earlier work
T1 sequence (Q9Y251 158-543 limits assumed): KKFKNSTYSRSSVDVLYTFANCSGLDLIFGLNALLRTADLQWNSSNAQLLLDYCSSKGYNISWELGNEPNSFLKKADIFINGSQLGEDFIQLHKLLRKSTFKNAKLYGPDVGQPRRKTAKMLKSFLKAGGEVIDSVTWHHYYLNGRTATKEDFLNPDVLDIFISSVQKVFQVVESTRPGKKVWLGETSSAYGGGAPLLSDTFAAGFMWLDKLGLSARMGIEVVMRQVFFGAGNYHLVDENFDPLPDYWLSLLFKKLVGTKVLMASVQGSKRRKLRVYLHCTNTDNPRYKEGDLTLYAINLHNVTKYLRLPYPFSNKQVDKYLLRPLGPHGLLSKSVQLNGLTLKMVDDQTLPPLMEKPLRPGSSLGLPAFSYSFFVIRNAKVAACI
T1 sequence (Q9Y251 36-109 limits assumed): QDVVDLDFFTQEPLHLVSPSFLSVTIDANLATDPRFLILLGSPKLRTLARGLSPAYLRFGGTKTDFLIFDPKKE

[2] = test system: anti-heparosan antibodies; assay: ELISA serological test for anti-heparosan IgG/IgM antibodies after repeated immunization; type: in vivo; conditions: rat, multiple boosts over approximately seven months
Text: FIG. 7 depicts the serological test results for potential induction of anti-heparosan antibodies against a heparosan-containing molecule (HEP-G-CSF, heparosan sugar polymer attached to the Granulocyte Colony Stimulating Factor (G-CSF) protein) in a rat model. A control pre-immune sera was collected, and then three animals (Rat #1, #2, and #3) were immunized and periodically boosted with HEP-G-CSF eight times over an approximately seven month period followed by periodic test bleeds. The various serum samples were tested in 96-well plates via ELISA. First, the wells of the plate were coated either with: (i) bovine serum albumin (BSA) to assess the background (‘Control’ shown in grey bars); or (ii) heparosan-BSA (HEP-BSA) conjugate (‘HEP’; shown in black bars), to measure any potential immune response. After blocking all the wells with BSA and washing thoroughly, 1 μl of the pre-immunization serum (the negative control Prebleed, ‘PreB’) or post-immunization serum (collected either on week 9 (Bleed #1; B#1), week 15 (B#2), or week 30 (B#3)) was incubated with wells (the rats had 3, 5, or 9 injections of test antigen, respectively, before these three bleeds). After washing the wells, the presence of any bound rat antibodies was determined by interaction with either an anti-rat IgG (Panel A) or an anti-rat lgM (Panel B) goat secondary antibody-horseradish peroxidase conjugate. […]

Molecule: Dermatan sulfate
- HEPase? substantially sensitive to cleavage by mammalian heparanase [1]: No

B1: HEP-G-CSF (conjugate, UniProt P09919 31-207, looked up)
Granulocyte …: TPLGPASSLPQSFLLKCLEQVRKIQGDGAALQEKLVSECATYKLCHPEELVLLGHSLGIPWAPLSSCPSQALQLAGCLSQLHSGLFLYQGLLQALEGISPELGPTLDTLQLDVADFATTIWQQMEELGMAPALQPTQGAMPAFASAFQRRAGGVLVASHLQSFLEVSYRVLRHLAQP
modifications: heparosan polymer conjugate
- induction of specific anti-heparosan antibodies (IgG, IgM) [2]: no specific antibodies against heparosan were observed

From patent US20160114050A1, “Heparosan/Therapeutic Prodrug Complexes and Methods of Making and Using Same” (The Board of Regents of the University of Oklahoma, priority 2014, published 2016)
